# Laboratory results taken from patent US9242987B2, “Heterocyclyl pyrazolopyrimidine analogues as JAK inhibitors” (Cellzome Limited, priority 2009, dated 2016).
# Key:
# [1] = target: T1, JAK2 (Homo sapiens, UniProt O60674); experiment: Kinobeads assay, JAK2; format: binding; details: mixed Molt4/Ramos cell lysate, dot blot detection
# T1 construct: endogenous in cells; host or cells: Mixed Molt4/Ramos lysate (1:2)
# Procedure, shortened: (§1)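 Lysate from Molt4 and Ramos cells combined 1:2 at 10 mg/mL total protein met test compound and an aminopyrido-pyrimidine affinity matrix for 3 h in the cold. Captured JAK2 and JAK3, after elution, were measured by specific-antibody dot blot on an infrared system; dose-response curves yielded IC50.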
# [2] = target: T2, JAK3 (Homo sapiens, UniProt P52333); experiment: Kinobeads assay, JAK3; format: binding; details: mixed Molt4/Ramos cell lysate, dot blot detection
# T2 construct: endogenous in cells; host or cells: Mixed Molt4/Ramos lysate (1:2)
# T2 sequence (P52333 1-1124): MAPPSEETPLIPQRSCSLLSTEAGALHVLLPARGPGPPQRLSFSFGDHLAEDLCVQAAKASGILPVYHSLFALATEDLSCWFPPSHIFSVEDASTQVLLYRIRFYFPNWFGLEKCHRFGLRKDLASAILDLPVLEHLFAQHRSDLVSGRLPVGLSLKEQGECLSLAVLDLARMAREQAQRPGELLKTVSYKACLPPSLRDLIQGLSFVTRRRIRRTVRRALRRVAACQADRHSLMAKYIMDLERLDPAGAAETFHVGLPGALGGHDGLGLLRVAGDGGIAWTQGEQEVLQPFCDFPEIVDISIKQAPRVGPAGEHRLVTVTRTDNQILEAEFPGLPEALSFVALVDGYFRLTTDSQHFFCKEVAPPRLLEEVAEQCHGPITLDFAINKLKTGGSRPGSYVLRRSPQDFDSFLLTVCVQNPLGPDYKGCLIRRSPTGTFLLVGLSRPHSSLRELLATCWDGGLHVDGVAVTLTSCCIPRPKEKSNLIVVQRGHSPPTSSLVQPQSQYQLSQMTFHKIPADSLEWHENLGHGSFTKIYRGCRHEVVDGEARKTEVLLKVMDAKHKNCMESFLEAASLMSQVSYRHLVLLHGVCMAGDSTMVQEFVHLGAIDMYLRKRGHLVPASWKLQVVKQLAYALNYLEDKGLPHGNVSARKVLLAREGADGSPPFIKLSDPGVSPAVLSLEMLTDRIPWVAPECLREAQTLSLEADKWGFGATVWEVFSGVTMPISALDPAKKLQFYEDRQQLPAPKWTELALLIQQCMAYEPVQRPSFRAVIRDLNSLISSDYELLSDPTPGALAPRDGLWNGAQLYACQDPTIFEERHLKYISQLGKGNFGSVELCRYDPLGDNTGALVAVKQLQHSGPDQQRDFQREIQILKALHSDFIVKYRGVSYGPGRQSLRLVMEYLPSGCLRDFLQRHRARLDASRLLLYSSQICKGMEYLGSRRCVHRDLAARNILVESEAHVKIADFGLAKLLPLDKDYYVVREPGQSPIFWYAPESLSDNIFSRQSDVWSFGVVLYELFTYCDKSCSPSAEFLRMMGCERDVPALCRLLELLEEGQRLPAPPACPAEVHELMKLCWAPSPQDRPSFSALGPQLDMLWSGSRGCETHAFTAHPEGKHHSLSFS
# Procedure, shortened: as §1
# T1 sequence (O60674 whole entry): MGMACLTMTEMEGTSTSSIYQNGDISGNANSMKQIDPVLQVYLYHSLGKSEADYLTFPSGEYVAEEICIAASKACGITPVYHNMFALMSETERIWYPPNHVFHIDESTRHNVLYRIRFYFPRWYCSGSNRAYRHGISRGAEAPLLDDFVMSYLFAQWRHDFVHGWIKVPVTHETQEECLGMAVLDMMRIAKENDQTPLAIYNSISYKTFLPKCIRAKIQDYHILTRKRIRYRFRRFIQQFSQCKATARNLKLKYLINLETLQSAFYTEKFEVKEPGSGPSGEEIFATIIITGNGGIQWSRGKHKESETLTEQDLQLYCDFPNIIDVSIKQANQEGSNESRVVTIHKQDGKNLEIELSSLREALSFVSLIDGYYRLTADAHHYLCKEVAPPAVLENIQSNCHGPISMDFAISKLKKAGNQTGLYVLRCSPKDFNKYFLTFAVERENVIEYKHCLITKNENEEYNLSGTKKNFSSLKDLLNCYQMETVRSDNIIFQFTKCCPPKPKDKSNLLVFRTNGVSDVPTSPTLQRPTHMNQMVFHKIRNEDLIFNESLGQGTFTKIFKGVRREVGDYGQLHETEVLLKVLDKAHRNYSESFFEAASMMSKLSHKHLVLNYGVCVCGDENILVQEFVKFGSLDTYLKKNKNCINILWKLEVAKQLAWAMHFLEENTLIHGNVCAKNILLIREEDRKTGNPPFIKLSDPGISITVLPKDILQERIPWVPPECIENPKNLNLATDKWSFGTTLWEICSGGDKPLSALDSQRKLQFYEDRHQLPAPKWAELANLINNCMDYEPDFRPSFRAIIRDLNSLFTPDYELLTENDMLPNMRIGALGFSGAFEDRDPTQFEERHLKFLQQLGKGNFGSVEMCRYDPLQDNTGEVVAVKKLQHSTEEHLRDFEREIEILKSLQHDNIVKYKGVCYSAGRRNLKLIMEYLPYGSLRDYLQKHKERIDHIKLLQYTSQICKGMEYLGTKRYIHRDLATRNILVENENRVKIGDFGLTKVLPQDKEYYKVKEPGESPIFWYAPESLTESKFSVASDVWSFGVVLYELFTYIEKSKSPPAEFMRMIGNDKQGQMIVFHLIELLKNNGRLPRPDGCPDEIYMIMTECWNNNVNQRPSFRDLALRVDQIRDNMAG
SMILES,IC50 [1] [nM],IC50 [2] [nM]
"O=C1CNCCN1c1ccc(F)c(Cn2ncc3cnc(Nc4cnn(CCO)c4)nc32)c1F [Example 302, 1-(2,4-Difluoro-3-((6-((1-(2-hydroxyethyl)-1H-pyrazol-4-yl)amino)-1H-pyrazolo[3,4-d]pyrimidin-1-yl)methyl)phenyl)piperazin-2-one]",1000 to 10000,< 100
"OCCn1cc(Nc2ncc3cnn(Cc4c(F)ccc(N5CCNCC5)c4F)c3n2)cn1 [Example 304, 2-(4-((1-(2,6-Difluoro-3-(piperazin-1-yl)benzyl)-1H-pyrazolo[3,4-d]pyrimidin-6-yl)amino)-1H-pyrazol-1-yl)ethanol]",1000 to 10000,< 100
"Fc1ccccc1Cn1ncc2cnc(Nc3cnn(CC4CCNC4)c3)nc21 (centres unmarked) [Example 306, 1-(2-Fluorobenzyl)-N-(1-(pyrrolidin-3-ylmethyl)-1H-pyrazol-4-yl)-1H-pyrazolo[3,4-d]pyrimidin-6-amine]",100 to 1000,< 100
"OCCn1cc(Nc2ncc3cnn(Cc4cccc(F)n4)c3n2)cn1 [Example 314, 2-(4-((1-((6-Fluoropyridin-2-yl)methyl)-1H-pyrazolo[3,4-d]pyrimidin-6-yl)amino)-1H-pyrazol-1-yl)ethanol]",100 to 1000,< 100
